Test in all cases: NCI-60 cell line screen, 48 h
The test system of assay [1] is HT29 colon.
Assay [2] relates to MDA-MB-435.
The test system of assay [3] is NCI-H460 lung.
The subject of assay [4] is SNB-19 CNS.
In assay [5] the test system is SR leukemia.
The test system of assay [6] is UACC-62 melanoma.
The subject of assay [7] is MALME-3M melanoma.
Assay [8] has as its system HOP-62 NSCLC.
Assay [9] concerns SF-295 CNS.
The test system of assay [10] is K-562 leukemia.

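Dose response: 5 concentrations. Exposure: 48 h. Format: 96-well plates. Endpoint: linear interpolation; highest concentration if not reached. GI50 = concentration required for 50% inhibition of growth. TGI: concentration producing complete growth inhibition.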 Where a SMILES comes first, the peptide text is derived from it. [ ]: non-standard residue; d: D form. The star is where a group is joined. X28 = COC1=CC(=O)N(C(=O)[C@@H](O*)C(C)C)[C@H]1Cc1ccccc1; NMeV = CN[C@H](C(=O)O)C(C)C; Hexanoyl = CCCCCC(=O)* A value given as a limit tells only on which side of the number the result lay.

Take `CCOC(=O)N(Cc1cccs1)c1cc(OC)c(OC)c(OC)c1`: the TGI was greater than 100 µM in [1]; 63.2 µM in assay [2]; greater than 100 µM in assay [3]; greater than 100 µM in assay [4]; 65.5 µM in assay [5]; greater than 100 µM in assay [6]. Also, the TGI was greater than 100 µM in assay [7], greater than 100 µM in assay [8], greater than 100 µM in assay [9] and 65.7 µM in [10].

On to `CCCNC(=O)c1cc(NC(=O)c2cc(NC(=O)/C=C/c3ccccc3)c(OC)c(OC)c2)c(OC)c(OC)c1`, for which the TGI in assay [1] is 66.5 µM; in assay [2], 66.5 µM; in [3], 82.5 µM; in [4], 21.6 µM; in assay [5], greater than 100 µM; in assay [6] it was 0.597 µM. The TGI in assay [7] is 8.74 µM; in assay [8], 19.4 µM; in assay [9], 11.2 µM; in assay [10], greater than 100 µM.

Turning to `CCN(CC)CC(C)Nc1ccc([N+](=O)[O-])c2sc3ccccc3c(=O)c12` (configuration not stated), the GI50 in assay [1] was 2.58 µM; in assay [2], 2.15 µM; in [3] it was 0.401 µM; in [4], 2.07 µM; in assay [6] it was 1.09 µM; in assay [7], 1.31 µM. Besides, the GI50 is 2.28 µM in assay [8], 1.4 µM in [9] and 1.46 µM in assay [10]. The TGI in [1] was greater than 33.2 µM; in [2] it was 8.33 µM; in assay [3] it was 2.14 µM; in assay [4] it was 32.7 µM; in [6], 2.52 µM; in assay [7], 3.76 µM. Moreover, the values for the TGI in assay [8], in assay [9] and in assay [10] were 12.3 µM, 9.95 µM and 3.74 µM, respectively.

Consider `N=c1c2c(C(N)=O)cn(C3OC(CO)C(O)C3O)c2ncn1O` (configuration not stated), for which the TGI in assay [1] is 9.64 µM; in assay [2], 0.74 µM; in [3] it was greater than 20.4 µM; in [4] it was greater than 100 µM; in [5], 0.234 µM; in [6], 0.283 µM. Besides, the TGI in assay [7] was 0.477 µM; in [8], 0.873 µM; in assay [9], 1.42 µM.

Regarding `CCOC(=O)CSc1nc(N)c2c(-c3ccc(OC)c(OC)c3)c3c(nc2n1)CCCC3`, the TGI in assay [1], in [2], in assay [3], in assay [4], in [5] and in assay [6] was greater than 100 µM throughout. Besides, the TGI in assay [7], in assay [8], in assay [9] and in [10] was greater than 100 µM throughout.

As to `CCOC(=O)C1(C(=O)OCC)Nc2cccnc2N(C)N1`, the TGI in assay [1] was 32.2 µM; in assay [2], 36 µM; in assay [3] it was greater than 100 µM; in assay [4], greater than 100 µM; in [5], greater than 100 µM; in [6], 35.2 µM. The TGI in assay [7] is greater than 100 µM; in assay [8], greater than 100 µM; in assay [9], greater than 100 µM; in assay [10], 49.9 µM.

For `CN1CC[C@@]2(c3cccc(O)c3)CC(=O)/C(=C/c3ccccc3)[C@H]1C2`, the TGI in assay [1] amounted to 13.5 µM; in [2], 13.9 µM; in assay [3], 18.7 µM; in assay [4], 19.5 µM; in assay [5], 7.5 µM; in assay [7], 33.5 µM. Moreover, the TGI was found to be 58.7 µM in assay [8], 23.8 µM in [9] and 6.52 µM in assay [10].

With `CCS(=O)(=O)Nc1ccc(Nc2c3ccccc3nc3ccccc23)c(OC)c1`, the TGI in [1] stood at 6.56 µM; in [3], 1.19 µM; in assay [4] it was 6.41 µM; in [6], 4.02 µM; in [7], 2.37 µM; in assay [8], 1.21 µM. In addition, the TGI in assay [9] amounted to 3.34 µM; in assay [10], 14.6 µM.

With `N=C(N)c1ccc(-c2ccc(-c3cc(Cl)cc(Cl)c3)o2)nc1`, the GI50 in [1] was 1.76 µM; in assay [2], 1.76 µM; in [3], 1.9 µM; in [4] it was 1.63 µM; in assay [5], 1.78 µM; in assay [6], 1.78 µM. Moreover, the values for the GI50 in [9] and in assay [10] were 1.92 µM and 1.5 µM, respectively. For the same compound, the TGI came out at 3.69 µM in assay [1]; 3.38 µM in assay [2]; 3.63 µM in assay [3]; 3.1 µM in assay [4]; 4.8 µM in assay [5]; 3.36 µM in [6]. Further, the TGI is 3.63 µM in [9] and 3.88 µM in [10].

Consider `CCC1C(C#N)=C(N)OC2=C1C(=O)CC(C)(C)C2` (configuration not stated), for which the TGI in [1], in assay [2], in assay [3], in [4], in assay [6] and in [7] was greater than 100 µM in each case. Also, the TGI in assay [8] and in assay [9] was greater than 100 µM in each case.

On to `O=S(=O)(O)c1ccc2cccc(N=Nc3c(O)ccc4ccccc34)c2c1`, for which the TGI in assay [2], in assay [3], in [4], in [5], in assay [6] and in assay [7] was greater than 100 µM throughout. Besides, the TGI in assay [8], in assay [9] and in assay [10] was greater than 100 µM throughout.

In the case of `COc1cc(/C=C/C(=O)c2ccc(NS(=O)(=O)c3cc([N+](=O)[O-])ccc3C)cc2)cc(OC)c1OC`, the TGI in [1] turned out to be 14.4 µM; in assay [2], 16.3 µM; in assay [4] it was 14.1 µM; in [5] it was 5.74 µM; in [8], 11.4 µM; in [9] it was 16.4 µM. In [10], this compound came in with a TGI of 10.9 µM.

`CCCCCC(=O)N[C@H](C(=O)N[C@H](C(=O)N(C)[C@H](C(=O)N1CCC[C@H]1C(=O)N1CCC[C@H]1C(=O)O[C@H](C(=O)N1C(=O)C=C(OC)[C@@H]1Cc1ccccc1)C(C)C)C(C)C)C(C)C)C(C)C` (Hexanoyl-VV[NMeV]PP-X28): the TGI in [1], in [2], in [3], in assay [6], in assay [7] and in [8] was greater than 100 µM throughout. Also, the TGI in assay [9] and in assay [10] was greater than 100 µM throughout.

The values are drawn from PubChem BioAssay (NCI).
